In US10961236B2, “(S)-2-(1-cyclopropylethyl)-5-(4-methyl-2-((6-(2-oxopyrrolidin-1-yl)pyridin-2-yl)amino) thiazol-5-yl)-7-(methylsulfonyl)isoindolin-1-one as a phosphatidylinositol 3-kinase inhibitor” (AstraZeneca AB, priority 2016, dated 2021):

Experiments:
Format in all cases: biochemical
[1] = biological target: recombinant human PI3Kα (6-His(p110-p85α)) (Homo sapiens (Human), UniProt P42336); test: Enzymatic activity assay for recombinant human PI3Kα (ADP-Glo); conditions: 1.2 nM PI3Kα, 20 μM ATP, 80 μM DiC8-PIP2, ADP-Glo
Protocol: (§1) Enzymatic Activity Assay for Recombinant Human PI3K α, β, δ and γ.
(§2) The activity of recombinant human PI3Kγ ((aa144-1102)-6His) and PI3Kα, β, δ (6-His(p110-p85α)) was determined by measuring the ADP level after phosphorylation of DiC8-PIP2 using a commercially available ADP-Glo™ kit from Promega. The assay was carried out in white low volume 384 well plates in a final volume of 14 μl at R.T. The assay conditions contained the following: 50 mM Tris buffer pH 7.4, 2.1 mM DTT, 3 mM MgCl2, 0.05% CHAPS, 20 μM ATP, 80 μM DiC8-PIP2 and 1.2 nM PI3Kα, β, γ or 0.6 nM PI3Kδ. Potential inhibitors were made up in DMSO and then diluted in the assay to give a final concentration of not exceeding 1% (v/v) DMSO. […] Routinely, inhibitors were pre-incubated with 3 μl of enzyme for 15 min prior to the addition of 2 μl substrate mixture for a further 60 min enzyme reaction. The phosphorylation was stopped with the addition of 3 μl ADP-Glo™ reagent (stop solution) followed by a 40 min incubation. Prior to detection 6 μl of ADP-Glo™ Kinase Detection Reagent was added and the plates were read in a micro plate reader using a Luminescence filter. All additions were followed by a short centrifugation step.

[2] = biological target: recombinant human PI3Kδ (6-His(p110-p85α)) (Homo sapiens (Human), UniProt O00329); test: Enzymatic activity assay for recombinant human PI3Kδ (ADP-Glo); conditions: 0.6 nM PI3Kδ, 20 μM ATP, 80 μM DiC8-PIP2, ADP-Glo
Protocol: as §1
as §2, with “PI3Kδ.” for “PI3Kδ. Potential inhibitors were made up in DMSO and then diluted in the assay to give a final concentration of not exceeding 1% (v/v) DMSO.”

[3] = biological target: recombinant human PI3Kγ ((aa144-1102)-6His) (Homo sapiens (Human), UniProt P48736); test: Enzymatic activity assay for recombinant human PI3Kγ (ADP-Glo); conditions: 1.2 nM PI3Kγ, 20 μM ATP, 80 μM DiC8-PIP2, ADP-Glo
Protocol: as §1
as §2, with “PI3Kδ.” for “PI3Kδ. Potential inhibitors were made up in DMSO and then diluted in the assay to give a final concentration of not exceeding 1% (v/v) DMSO.”

[4] = biological target: recombinant human PI3Kβ (6-His(p110-p85α)) (Homo sapiens (Human), UniProt P42338); test: Enzymatic activity assay for recombinant human PI3Kβ (ADP-Glo); conditions: 1.2 nM PI3Kβ, 20 μM ATP, 80 μM DiC8-PIP2, ADP-Glo
Protocol: as §1, §2

recombinant human PI3Kγ ((aa144-1102)-6His), sequence (P48736 144-1102): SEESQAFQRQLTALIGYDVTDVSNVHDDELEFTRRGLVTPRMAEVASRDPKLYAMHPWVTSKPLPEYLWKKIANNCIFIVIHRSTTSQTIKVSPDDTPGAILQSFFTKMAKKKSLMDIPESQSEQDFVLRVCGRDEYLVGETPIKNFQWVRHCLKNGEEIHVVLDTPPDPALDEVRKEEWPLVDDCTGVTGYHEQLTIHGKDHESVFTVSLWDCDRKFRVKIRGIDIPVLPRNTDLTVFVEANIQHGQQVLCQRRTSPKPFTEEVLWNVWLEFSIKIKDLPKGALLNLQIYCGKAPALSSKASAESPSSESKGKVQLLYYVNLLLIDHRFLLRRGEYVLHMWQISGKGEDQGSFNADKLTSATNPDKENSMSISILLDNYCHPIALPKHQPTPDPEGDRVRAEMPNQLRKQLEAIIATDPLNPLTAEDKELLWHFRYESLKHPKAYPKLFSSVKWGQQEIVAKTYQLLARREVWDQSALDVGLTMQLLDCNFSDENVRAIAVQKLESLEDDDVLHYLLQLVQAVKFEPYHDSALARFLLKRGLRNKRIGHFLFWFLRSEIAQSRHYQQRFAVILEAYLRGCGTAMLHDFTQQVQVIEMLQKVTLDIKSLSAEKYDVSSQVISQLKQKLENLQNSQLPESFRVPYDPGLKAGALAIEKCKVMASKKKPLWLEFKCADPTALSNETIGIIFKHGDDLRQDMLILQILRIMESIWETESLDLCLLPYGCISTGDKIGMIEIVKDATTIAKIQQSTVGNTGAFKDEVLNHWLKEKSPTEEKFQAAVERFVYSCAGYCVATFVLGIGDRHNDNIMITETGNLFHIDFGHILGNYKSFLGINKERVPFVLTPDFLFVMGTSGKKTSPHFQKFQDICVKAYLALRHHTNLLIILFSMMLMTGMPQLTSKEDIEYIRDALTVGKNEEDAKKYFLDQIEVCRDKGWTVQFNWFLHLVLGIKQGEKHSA
recombinant human PI3Kδ (6-His(p110-p85α)), sequence (O00329 whole entry): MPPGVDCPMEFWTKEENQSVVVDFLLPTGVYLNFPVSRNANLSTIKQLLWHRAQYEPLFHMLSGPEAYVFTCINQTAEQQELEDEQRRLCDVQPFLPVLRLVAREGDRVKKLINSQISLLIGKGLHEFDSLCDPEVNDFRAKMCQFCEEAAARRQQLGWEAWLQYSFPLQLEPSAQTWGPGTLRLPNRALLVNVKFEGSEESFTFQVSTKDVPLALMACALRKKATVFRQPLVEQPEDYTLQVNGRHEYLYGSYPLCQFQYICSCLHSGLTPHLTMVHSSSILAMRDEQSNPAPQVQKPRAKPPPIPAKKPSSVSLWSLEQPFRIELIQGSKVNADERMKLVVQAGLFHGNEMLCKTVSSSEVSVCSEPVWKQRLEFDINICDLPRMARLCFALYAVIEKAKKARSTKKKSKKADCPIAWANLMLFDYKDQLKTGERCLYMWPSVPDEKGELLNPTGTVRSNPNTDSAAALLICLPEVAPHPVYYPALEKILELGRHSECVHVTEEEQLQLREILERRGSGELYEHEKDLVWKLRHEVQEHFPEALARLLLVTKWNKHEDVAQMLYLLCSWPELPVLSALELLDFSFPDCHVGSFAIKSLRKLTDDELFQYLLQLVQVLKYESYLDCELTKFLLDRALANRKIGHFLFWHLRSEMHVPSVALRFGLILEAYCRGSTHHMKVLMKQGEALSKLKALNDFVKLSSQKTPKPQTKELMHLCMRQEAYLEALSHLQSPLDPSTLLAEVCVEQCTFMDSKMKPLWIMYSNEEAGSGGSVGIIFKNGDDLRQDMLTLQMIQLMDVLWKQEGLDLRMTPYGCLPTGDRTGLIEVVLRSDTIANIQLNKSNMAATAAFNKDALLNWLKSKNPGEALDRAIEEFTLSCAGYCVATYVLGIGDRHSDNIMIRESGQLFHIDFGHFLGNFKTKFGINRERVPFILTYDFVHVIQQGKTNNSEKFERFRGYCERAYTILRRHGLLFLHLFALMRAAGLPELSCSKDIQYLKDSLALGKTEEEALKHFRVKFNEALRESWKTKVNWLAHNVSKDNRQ
recombinant human PI3Kδ (6-His(p110-p85α)), sequence (P27986 whole entry partner): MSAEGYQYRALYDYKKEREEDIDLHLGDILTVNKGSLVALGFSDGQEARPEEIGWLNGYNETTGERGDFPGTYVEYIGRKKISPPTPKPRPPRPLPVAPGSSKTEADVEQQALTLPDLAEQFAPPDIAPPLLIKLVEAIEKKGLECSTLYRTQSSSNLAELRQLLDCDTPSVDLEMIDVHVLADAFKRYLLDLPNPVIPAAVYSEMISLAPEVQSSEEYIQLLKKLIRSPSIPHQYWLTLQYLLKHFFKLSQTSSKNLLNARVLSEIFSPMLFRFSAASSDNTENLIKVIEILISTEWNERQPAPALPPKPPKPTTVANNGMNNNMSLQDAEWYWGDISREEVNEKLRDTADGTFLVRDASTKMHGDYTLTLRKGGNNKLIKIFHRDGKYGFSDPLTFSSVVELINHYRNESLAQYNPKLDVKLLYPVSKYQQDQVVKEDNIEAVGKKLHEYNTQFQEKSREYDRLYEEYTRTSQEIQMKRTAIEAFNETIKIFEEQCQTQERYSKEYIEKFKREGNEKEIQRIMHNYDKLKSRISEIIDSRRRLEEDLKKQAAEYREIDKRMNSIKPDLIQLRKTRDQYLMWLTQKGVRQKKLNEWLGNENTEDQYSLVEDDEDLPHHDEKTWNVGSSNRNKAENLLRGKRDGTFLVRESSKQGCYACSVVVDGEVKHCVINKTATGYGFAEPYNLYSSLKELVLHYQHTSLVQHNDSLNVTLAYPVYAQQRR
recombinant human PI3Kβ (6-His(p110-p85α)), sequence (P42338 whole entry): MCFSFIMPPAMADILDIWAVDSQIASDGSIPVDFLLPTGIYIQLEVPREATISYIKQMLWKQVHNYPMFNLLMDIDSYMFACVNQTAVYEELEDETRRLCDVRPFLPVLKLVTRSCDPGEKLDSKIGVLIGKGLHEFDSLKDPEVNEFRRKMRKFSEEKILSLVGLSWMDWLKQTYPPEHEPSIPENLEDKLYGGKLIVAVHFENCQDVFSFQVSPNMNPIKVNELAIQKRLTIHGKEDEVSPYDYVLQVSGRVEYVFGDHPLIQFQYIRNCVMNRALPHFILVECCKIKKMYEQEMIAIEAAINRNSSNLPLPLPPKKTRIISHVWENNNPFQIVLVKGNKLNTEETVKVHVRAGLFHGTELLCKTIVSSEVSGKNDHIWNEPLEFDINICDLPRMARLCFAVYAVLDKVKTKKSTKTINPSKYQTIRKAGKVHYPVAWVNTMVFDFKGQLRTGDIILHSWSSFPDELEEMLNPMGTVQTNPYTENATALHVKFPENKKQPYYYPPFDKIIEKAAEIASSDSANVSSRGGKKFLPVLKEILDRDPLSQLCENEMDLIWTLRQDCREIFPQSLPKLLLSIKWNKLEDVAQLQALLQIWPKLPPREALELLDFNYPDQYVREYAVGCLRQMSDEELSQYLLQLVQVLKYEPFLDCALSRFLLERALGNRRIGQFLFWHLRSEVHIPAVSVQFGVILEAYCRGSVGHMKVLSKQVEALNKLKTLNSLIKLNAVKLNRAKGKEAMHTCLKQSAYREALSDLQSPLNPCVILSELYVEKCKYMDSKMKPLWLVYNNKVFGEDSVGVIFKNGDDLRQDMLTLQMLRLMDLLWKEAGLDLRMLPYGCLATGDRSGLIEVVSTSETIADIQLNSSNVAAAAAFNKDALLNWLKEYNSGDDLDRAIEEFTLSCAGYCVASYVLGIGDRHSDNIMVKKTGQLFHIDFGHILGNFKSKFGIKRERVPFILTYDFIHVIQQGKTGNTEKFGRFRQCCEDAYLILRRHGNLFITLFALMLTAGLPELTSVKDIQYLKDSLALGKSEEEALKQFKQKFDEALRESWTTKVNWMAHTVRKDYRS
recombinant human PI3Kβ (6-His(p110-p85α)), sequence (P27986 whole entry partner): as the sequence (P27986 whole entry partner) above
recombinant human PI3Kα (6-His(p110-p85α)), sequence (P42336 whole entry): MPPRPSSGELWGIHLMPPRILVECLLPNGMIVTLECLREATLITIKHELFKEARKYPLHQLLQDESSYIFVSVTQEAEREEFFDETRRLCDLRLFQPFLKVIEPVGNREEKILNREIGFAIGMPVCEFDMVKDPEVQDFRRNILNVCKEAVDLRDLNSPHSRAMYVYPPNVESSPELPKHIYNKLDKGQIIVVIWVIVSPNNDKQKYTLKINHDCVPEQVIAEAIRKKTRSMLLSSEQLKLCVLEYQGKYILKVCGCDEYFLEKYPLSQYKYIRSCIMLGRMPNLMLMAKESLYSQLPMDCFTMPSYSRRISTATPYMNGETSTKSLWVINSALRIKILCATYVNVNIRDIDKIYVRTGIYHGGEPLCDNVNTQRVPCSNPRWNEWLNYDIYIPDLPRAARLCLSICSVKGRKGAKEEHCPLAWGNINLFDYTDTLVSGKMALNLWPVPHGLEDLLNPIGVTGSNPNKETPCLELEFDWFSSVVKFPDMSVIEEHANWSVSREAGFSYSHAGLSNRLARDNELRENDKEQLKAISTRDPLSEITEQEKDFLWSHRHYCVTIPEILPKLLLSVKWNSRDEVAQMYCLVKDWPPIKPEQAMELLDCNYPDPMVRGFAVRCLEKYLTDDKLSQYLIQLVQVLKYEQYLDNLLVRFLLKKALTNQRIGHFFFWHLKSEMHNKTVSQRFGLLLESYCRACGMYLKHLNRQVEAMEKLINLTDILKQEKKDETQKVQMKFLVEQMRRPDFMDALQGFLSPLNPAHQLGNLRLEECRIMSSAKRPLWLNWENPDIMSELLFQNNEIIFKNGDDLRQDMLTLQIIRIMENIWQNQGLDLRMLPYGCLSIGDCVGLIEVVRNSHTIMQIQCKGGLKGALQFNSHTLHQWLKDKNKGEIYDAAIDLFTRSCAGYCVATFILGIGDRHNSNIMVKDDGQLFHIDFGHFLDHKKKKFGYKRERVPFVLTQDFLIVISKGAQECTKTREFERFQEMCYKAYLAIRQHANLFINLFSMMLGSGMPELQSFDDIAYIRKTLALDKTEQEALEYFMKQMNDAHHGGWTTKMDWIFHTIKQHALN
recombinant human PI3Kα (6-His(p110-p85α)), sequence (P27986 whole entry partner): as the sequence (P27986 whole entry partner) above

| IC50 [1] [µM] | IC50 [2] [µM] | IC50 [3] [µM] | IC50 [4] [µM] | SMILES |
| --- | --- | --- | --- | --- |
| 0.263 | 0.0196 | 0.0009 | 3.73 | CC(=O)Nc1cccc(Nc2nc(C)c(-c3cc4c(c(S(C)(=O)=O)c3)C(=O)N([C@@H](C)C3CC3)C4)s2)n1 [Example 2, N-{6-[(5-{2-[(1S)-1-Cyclopropylethyl]-7-(methylsulfonyl)-1-oxo-2,3-dihydro-1H-isoindol-5-yl}-4-methyl-1,3-thiazol-2-yl)amino]pyridin-2-yl}acetamide] |
| 0.016 | – | 0.001 | 0.25 | Cc1nc(Nc2cccc(N3CCCCC3=O)n2)sc1-c1cc2c(c(S(C)(=O)=O)c1)C(=O)N([C@@H](C)C1CC1)C2 [Example 4, 2-[(1S)-1-Cyclopropylethyl]-5-(4-methyl-2-{[6-(2-oxopiperidin-1-yl)pyridin-2-yl]amino}-1,3-thiazol-5-yl)-7-(methylsulfonyl)-2,3-dihydro-1H-isoindol-1-one] |
| 0.038 | 0.0007 | 0.0012 | 4.71 | Cc1nc(Nc2cccc(N3CCN(C)C3=O)n2)sc1-c1cc2c(c(S(C)(=O)=O)c1)C(=O)N([C@@H](C)C1CC1)C2 [Example 5, 2-[(1S)-1-Cyclopropylethyl]-5-(4-methyl-2-{[6-(3-methyl-2-oxoimidazolidin-1-yl)pyridin-2-yl]amino}-1,3-thiazol-5-yl)-7-(methylsulfonyl)-2,3-dihydro-1H-isoindol-1-one] |
| 0.023 | 0.0012 | 0.0013 | 0.324 | Cc1nc(Nc2cccc(N3CCCOC3=O)n2)sc1-c1cc2c(c(S(C)(=O)=O)c1)C(=O)N([C@@H](C)C1CC1)C2 [Example 8, 2-[(1S)-1-Cyclopropylethyl]-5-(4-methyl-2-{[6-(2-oxo-1,3-oxazinan-3-yl)pyridin-2-yl]amino}-1,3-thiazol-5-yl)-7-(methylsulfonyl)-2,3-dihydro-1H-isoindol-1-one] |
| 0.054 | 0.0012 | 0.0008 | 0.291 | Cc1nc(Nc2cccc(N3CCNC3=O)n2)sc1-c1cc2c(c(S(C)(=O)=O)c1)C(=O)N([C@@H](C)C(F)(F)F)C2 [Example 11, 5-(4-Methyl-2-{[6-(2-oxoimidazolidin-1-yl)pyridin-2-yl]amino}-1,3-thiazol-5-yl)-7-(methylsulfonyl)-2-[(2S)-1,1,1-trifluoropropan-2-yl]-2,3-dihydro-1H-isoindol-1-one] |
| 0.3 | 0.0016 | 0.0009 | 4.1 | Cc1nc(Nc2cccc(N3CCOC3=O)n2)sc1-c1cc2c(c(S(C)(=O)=O)c1)C(=O)N([C@@H](C)C(F)(F)F)C2 [Example 12, 5-(4-Methyl-2-{[6-(2-oxo-1,3-oxazolidin-3-yl)pyridin-2-yl]amino}-1,3-thiazol-5-yl)-7-(methylsulfonyl)-2-[(2S)-1,1,1-trifluoropropan-2-yl]-2,3-dihydro-1H-isoindol-1-one] |
| 0.018 | – | – | 0.168 | CNS(=O)(=O)c1cc(-c2sc(Nc3cccc(N4CCCCC4=O)n3)nc2C)cc2c1C(=O)N([C@@H](C)C1CC1)C2 [Example 19, 2-[(1S)-1-Cyclopropylethyl]-N-methyl-6-(4-methyl-2-{[6-(2-oxopiperidin-1-yl)pyridin-2-yl]amino}-1,3-thiazol-5-yl)-3-oxo-2,3-dihydro-1H-isoindole-4-sulfonamide] |
| – | 0.0189 | 0.0225 | – | CNS(=O)(=O)c1cc(-c2sc(Nc3cccc(N4CCCNCC4=O)n3)nc2C)cc2c1C(=O)N([C@@H](C)C1CC1)C2 [Example 52, 2-[(1S)-1-Cyclopropylethyl]-N-methyl-6-(4-methyl-2-{[6-(2-oxo-1,4-diazepan-1-yl)pyridin-2-yl]amino}-1,3-thiazol-5-yl)-3-oxo-2,3-dihydro-1H-isoindole-4-sulfonamide] |

More lines, now with the values behind:

| SMILES | IC50 [1] [µM] | IC50 [2] [µM] | IC50 [3] [µM] | IC50 [4] [µM] |
| --- | --- | --- | --- | --- |
| Cc1nc(Nc2cccc(N3CCCC3=O)n2)sc1-c1cc2c(c(S(C)(=O)=O)c1)C(=O)N([C@@H](C)C1CC1)C2 [Example 1, 2-[(1S)-1-Cyclopropylethyl]-5-(4-methyl-2-{[6-(2-oxopyrrolidin-1-yl)pyridin-2-yl]amino}-1,3-thiazol-5-yl)-7-(methylsulfonyl)-2,3-dihydro-1H-isoindol-1-one] | 0.055 | 0.0007 | 0.0009 | 1.36 |
| CC(=O)N(C)c1cccc(Nc2nc(C)c(-c3cc4c(c(S(C)(=O)=O)c3)C(=O)N([C@@H](C)C3CC3)C4)s2)n1 [Example 3, N-{6-[(5-{2-[(1S)-1-Cyclopropylethyl]-7-(methylsulfonyl)-1-oxo-2,3-dihydro-1H-isoindol-5-yl}-4-methyl-1,3-thiazol-2-yl)amino]pyridin-2-yl}-N-methylacetamide] | 0.127 | 0.0014 | 0.0008 | 1.18 |
| Cc1nc(Nc2cccc(N3CCNC3=O)n2)sc1-c1cc2c(c(S(C)(=O)=O)c1)C(=O)N([C@@H](C)C1CC1)C2 [Example 6, 2-[(1S)-1-Cyclopropylethyl]-5-(4-methyl-2-{[6-(2-oxoimidazolidin-1-yl)pyridin-2-yl]amino}-1,3-thiazol-5-yl)-7-(methylsulfonyl)-2,3-dihydro-1H-isoindol-1-one] | 0.023 | 0.0007 | 0.0008 | 0.219 |
| Cc1nc(Nc2cccc(N3CCOCC3=O)n2)sc1-c1cc2c(c(S(C)(=O)=O)c1)C(=O)N([C@@H](C)C1CC1)C2 [Example 7, 2-[(1S)-1-Cyclopropylethyl]-5-(4-methyl-2-{[6-(3-oxomorpholin-4-yl)pyridin-2-yl]amino}-1,3-thiazol-5-yl)-7-(methylsulfonyl)-2,3-dihydro-1H-isoindol-1-one] | 0.057 | – | 0.0009 | 0.688 |
| Cc1nc(Nc2cccc(N3Cc4ncccc4C3=O)n2)sc1-c1cc2c(c(S(C)(=O)=O)c1)C(=O)N([C@@H](C)C1CC1)C2 [Example 9, 6-{6-[(5-{2-[(1S)-1-Cyclopropylethyl]-7-(methylsulfonyl)-1-oxo-2,3-dihydro-1H-isoindol-5-yl}-4-methyl-1,3-thiazol-2-yl)amino]pyridin-2-yl}-6,7-dihydro-5H-pyrrolo[3,4-b]pyridin-5-one] | 11.4 | 0.0027 | 0.001 | 33.3 |
| Cc1nc(Nc2cccc(N3CCCC3=O)n2)sc1-c1cc2c(c(S(C)(=O)=O)c1)C(=O)N([C@@H](C)C(F)(F)F)C2 [Example 10, 5-(4-Methyl-2-{[6-(2-oxopyrrolidin-1-yl)pyridin-2-yl]amino}-1,3-thiazol-5-yl)-7-(methylsulfonyl)-2-[(2S)-1,1,1-trifluoropropan-2-yl]-2,3-dihydro-1H-isoindol-1-one] | 0.078 | – | 0.0009 | 0.575 |
| CNS(=O)(=O)c1cc(-c2sc(Nc3cccc(N(C)C(C)=O)n3)nc2C)cc2c1C(=O)N([C@@H](C)C1CC1)C2 [Example 13, N-{6-[(5-{2-[(1S)-1-Cyclopropylethyl]-7-(methylsulfamoyl)-1-oxo-2,3-dihydro-1H-isoindol-5-yl}-4-methyl-1,3-thiazol-2-yl)amino]pyridin-2-yl}-N-methylacetamide] | 0.068 | 0.0011 | 0.0008 | 1.57 |
| Cc1nc(Nc2cccc(N3CCOCC3=O)n2)sc1-c1cc2c(c(S(=O)(=O)NC3COC3)c1)C(=O)N([C@@H](C)C1CC1)C2 [Example 31, 2-[(1S)-1-Cyclopropylethyl]-6-(4-methyl-2-{[6-(3-oxomorpholin-4-yl)pyridin-2-yl]amino}-1,3-thiazol-5-yl)-N-(oxetan-3-yl)-3-oxo-2,3-dihydro-1H-isoindole-4-sulfonamide] | 0.085 | – | 0.0008 | 0.596 |
